The values below come from patent US20260043061A1, “ENZYMATICALLY MEDIATED REACTIVE CRYSTALLIZATION OF STEVIOL GLYCOSIDES” (Arzeda Corp., priority 2022, published 2026).

This data set can be described thus: Solubility of select steviol glycosides at room temperature. The data set is classed as physicochemical. The conditions noted are these: in water, some species may not be completely pure. The text has this:
Pure steviol glycosides are sparingly soluble in water. Solubility measurements may reflect the true thermodynamic solubility or a short-term kinetic solubility. The kinetic solubility value occurs when an isomeric form has been prepared that is not thermodynamically stable at long time scales yet has higher solubility at short times scales. A few steviol glycoside species have a free carboxylic acid group. These species tend to have higher solubility. Nevertheless, steviol glycosides are generally poorly soluble in water, as shown in Table 3 (certain measurements are for species that may not be completely pure).

Take `C=C1C[C@@]23CC[C@H]4[C@@](C)(CCC[C@@]4(C)C(=O)O[C@@H]4O[C@H](CO)[C@@H](O)[C@H](O)[C@H]4O)[C@@H]2CC[C@]1(O[C@@H]1O[C@H](CO)[C@@H](O)[C@H](O[C@@H]2O[C@H](CO)[C@@H](O)[C@H](O)[C@H]2O)[C@H]1O[C@@H]1O[C@H](CO)[C@@H](O)[C@H](O)[C@H]1O)C3` [Reb A 97%, rebaudioside A]: the Solubility worked out at 0.80% wt %.

For the compound `C=C1C[C@@]23CC[C@H]4[C@@](C)(CCC[C@@]4(C)C(=O)O[C@@H]4O[C@H](CO)[C@@H](O)[C@H](O)[C@H]4O)[C@@H]2CC[C@]1(O[C@@H]1O[C@H](CO)[C@@H](O)[C@H](O[C@@H]2O[C@H](CO)[C@@H](O)[C@H](O)[C@H]2O)[C@H]1O[C@@H]1O[C@H](CO)[C@@H](O)[C@H](O)[C@H]1O)C3` [Reb A anhydrous, rebaudioside A], the Solubility was 0.80% wt %.

`C=C1C[C@@]23CC[C@H]4[C@@](C)(CCC[C@@]4(C)C(=O)O[C@@H]4O[C@H](CO)[C@@H](O)[C@H](O)[C@H]4O)[C@@H]2CC[C@]1(O[C@@H]1O[C@H](CO)[C@@H](O)[C@H](O[C@@H]2O[C@H](CO)[C@@H](O)[C@H](O)[C@H]2O)[C@H]1O[C@@H]1O[C@H](CO)[C@@H](O)[C@H](O)[C@H]1O)C3` [Reb A hydrate, rebaudioside A] had a Solubility of 0.10% wt %.

`C=C1C[C@@]23CC[C@H]4[C@@](C)(CCC[C@@]4(C)C(=O)O[C@@H]4O[C@H](CO)[C@@H](O)[C@H](O)[C@H]4O)[C@@H]2CC[C@]1(O[C@@H]1O[C@H](CO)[C@@H](O)[C@H](O[C@@H]2O[C@H](CO)[C@@H](O)[C@H](O)[C@H]2O)[C@H]1O[C@@H]1O[C@H](CO)[C@@H](O)[C@H](O)[C@H]1O)C3` [Reb A, rebaudioside A] came in with a Solubility of 0.46% wt %.

The compound `C=C1C[C@@]23CC[C@H]4[C@@](C)(CCC[C@@]4(C)C(=O)O[C@@H]4O[C@H](CO)[C@@H](O)[C@H](O)[C@H]4O[C@@H]4O[C@H](CO)[C@@H](O)[C@H](O)[C@H]4O)[C@@H]2CC[C@]1(O[C@@H]1O[C@H](CO)[C@@H](O)[C@H](O[C@@H]2O[C@H](CO)[C@@H](O)[C@H](O)[C@H]2O)[C@H]1O[C@@H]1O[C@H](CO)[C@@H](O)[C@H](O)[C@H]1O)C3` [Reb D, rebaudioside D] came in with a Solubility of 0.10% wt %.

`C=C1C[C@@]23CC[C@H]4[C@@](C)(CCC[C@@]4(C)C(=O)O[C@@H]4O[C@H](CO)[C@@H](O)[C@H](O[C@@H]5O[C@H](CO)[C@@H](O)[C@H](O)[C@H]5O)[C@H]4O[C@@H]4O[C@H](CO)[C@@H](O)[C@H](O)[C@H]4O)[C@@H]2CC[C@]1(O[C@@H]1O[C@H](CO)[C@@H](O)[C@H](O[C@@H]2O[C@H](CO)[C@@H](O)[C@H](O)[C@H]2O)[C@H]1O[C@@H]1O[C@H](CO)[C@@H](O)[C@H](O)[C@H]1O)C3` [Reb M, rebaudioside M]: the Solubility was 0.05% wt %.

Consider `C=C1C[C@@]23CC[C@H]4[C@@](C)(CCC[C@@]4(C)C(=O)O[C@@H]4O[C@H](CO)[C@@H](O)[C@H](O)[C@H]4O)[C@@H]2CC[C@]1(O[C@@H]1O[C@H](CO)[C@@H](O)[C@H](O)[C@H]1O[C@@H]1O[C@H](CO)[C@@H](O)[C@H](O)[C@H]1O)C3` [Stevioside, stevioside], for which the Solubility is 0.44% wt %.

As to rebaudioside C [Reb C], the Solubility is recorded as 0.20% wt %.
